From paper PMC7714403 (JCI Insight, 2020)
Read-outs that look alike come from different tables or passages of the source.

Legend:
Test in all cases: KiNativ, MOLM13 live cells
Format in all cases: cell-based
CCRK = CCRK (Homo sapiens, UniProt Q8IZL9); settings: MOLM-13; 100 nM, 2 hours; Lys2; read-out: Inhibition vs DMSO
Protocol: (§1) Samples were analyzed by KiNativ in situ kinase profiling by ActivX Biosciences.

MAP3K5 = MAP3K5 (Homo sapiens, UniProt Q99683); settings: MOLM-13; 100 nM, 2 hours; Lys2; read-out: Inhibition vs DMSO
Sequence of MAP3K5 (Q99683 whole entry): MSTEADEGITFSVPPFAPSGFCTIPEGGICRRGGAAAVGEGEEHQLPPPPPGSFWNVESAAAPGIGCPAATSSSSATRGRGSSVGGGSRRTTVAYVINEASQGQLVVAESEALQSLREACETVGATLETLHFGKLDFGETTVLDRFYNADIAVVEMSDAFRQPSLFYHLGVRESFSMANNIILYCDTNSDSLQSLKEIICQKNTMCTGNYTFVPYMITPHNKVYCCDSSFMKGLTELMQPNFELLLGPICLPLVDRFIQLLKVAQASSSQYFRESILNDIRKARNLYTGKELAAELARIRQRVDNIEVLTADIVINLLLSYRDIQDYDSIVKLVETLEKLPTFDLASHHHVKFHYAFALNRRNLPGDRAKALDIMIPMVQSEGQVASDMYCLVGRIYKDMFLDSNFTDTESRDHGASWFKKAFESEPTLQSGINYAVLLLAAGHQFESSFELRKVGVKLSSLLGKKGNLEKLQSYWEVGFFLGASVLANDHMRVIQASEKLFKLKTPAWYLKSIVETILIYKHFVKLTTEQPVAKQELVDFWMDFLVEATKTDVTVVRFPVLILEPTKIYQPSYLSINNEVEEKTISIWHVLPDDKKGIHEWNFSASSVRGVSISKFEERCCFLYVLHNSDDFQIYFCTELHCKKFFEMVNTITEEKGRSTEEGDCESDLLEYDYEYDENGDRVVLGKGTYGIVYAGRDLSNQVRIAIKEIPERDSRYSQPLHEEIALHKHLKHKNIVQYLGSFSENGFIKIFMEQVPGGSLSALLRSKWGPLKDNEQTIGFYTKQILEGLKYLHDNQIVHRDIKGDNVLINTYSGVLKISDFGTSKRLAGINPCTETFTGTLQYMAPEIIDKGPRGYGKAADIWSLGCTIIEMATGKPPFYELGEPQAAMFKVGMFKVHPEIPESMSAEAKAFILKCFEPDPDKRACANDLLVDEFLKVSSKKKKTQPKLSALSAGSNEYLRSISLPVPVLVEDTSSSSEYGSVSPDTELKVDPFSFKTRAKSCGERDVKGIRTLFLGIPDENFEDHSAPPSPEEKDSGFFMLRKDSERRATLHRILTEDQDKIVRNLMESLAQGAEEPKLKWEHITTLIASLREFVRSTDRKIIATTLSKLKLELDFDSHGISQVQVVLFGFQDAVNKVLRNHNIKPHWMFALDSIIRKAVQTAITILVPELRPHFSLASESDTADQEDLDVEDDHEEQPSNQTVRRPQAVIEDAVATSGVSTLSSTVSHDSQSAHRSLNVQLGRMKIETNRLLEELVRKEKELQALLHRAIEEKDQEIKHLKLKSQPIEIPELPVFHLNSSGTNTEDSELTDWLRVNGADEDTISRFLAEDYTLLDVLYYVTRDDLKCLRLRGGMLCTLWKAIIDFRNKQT
Protocol: as §1

PAK2 = PAK2 (Homo sapiens, UniProt Q13177); settings: MOLM-13, 2 h, 100 nM
Sequence of PAK2 (Q13177 whole entry): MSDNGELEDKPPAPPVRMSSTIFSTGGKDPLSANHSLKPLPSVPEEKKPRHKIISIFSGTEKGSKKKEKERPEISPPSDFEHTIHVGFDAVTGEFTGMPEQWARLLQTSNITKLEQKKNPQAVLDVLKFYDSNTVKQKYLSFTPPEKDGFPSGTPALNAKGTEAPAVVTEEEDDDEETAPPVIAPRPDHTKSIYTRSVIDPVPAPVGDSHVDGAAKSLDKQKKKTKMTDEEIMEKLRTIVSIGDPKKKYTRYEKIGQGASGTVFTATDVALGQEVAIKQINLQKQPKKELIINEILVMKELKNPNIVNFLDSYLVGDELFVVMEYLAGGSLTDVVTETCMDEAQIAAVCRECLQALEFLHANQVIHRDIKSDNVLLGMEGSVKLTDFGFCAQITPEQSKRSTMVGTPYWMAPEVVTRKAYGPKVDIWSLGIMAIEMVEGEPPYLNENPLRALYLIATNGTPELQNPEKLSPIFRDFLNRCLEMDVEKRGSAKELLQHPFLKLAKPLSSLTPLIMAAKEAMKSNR
Protocol: as §1

PLK1 = PLK1 (Homo sapiens, UniProt P53350); settings: MOLM-13, 2 h, 100 nM
Sequence of PLK1 (P53350 whole entry): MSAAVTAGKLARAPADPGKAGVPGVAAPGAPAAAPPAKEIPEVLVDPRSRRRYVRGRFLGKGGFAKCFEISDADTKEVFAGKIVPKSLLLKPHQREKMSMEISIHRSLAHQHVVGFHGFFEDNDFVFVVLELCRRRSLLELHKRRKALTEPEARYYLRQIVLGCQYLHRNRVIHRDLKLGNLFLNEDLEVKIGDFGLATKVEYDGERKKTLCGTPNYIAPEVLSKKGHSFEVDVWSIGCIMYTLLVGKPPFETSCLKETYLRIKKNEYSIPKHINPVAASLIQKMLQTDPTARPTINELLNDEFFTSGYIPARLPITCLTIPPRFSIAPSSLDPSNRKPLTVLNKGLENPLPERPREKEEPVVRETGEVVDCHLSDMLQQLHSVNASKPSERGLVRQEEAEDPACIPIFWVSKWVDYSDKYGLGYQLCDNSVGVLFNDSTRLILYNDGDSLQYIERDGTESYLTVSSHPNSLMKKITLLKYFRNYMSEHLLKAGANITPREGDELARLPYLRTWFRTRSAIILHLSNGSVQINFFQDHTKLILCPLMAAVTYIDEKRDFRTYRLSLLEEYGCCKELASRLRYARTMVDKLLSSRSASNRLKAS
Protocol: as §1

MST1 = MST1 (Homo sapiens, UniProt Q13043); settings: 100 nM, 2 hours; Lys1
Protocol: as §1

p70S6Kb = p70S6Kb (Homo sapiens, UniProt Q9UBS0); settings: MOLM-13, 2 h, 100 nM
Sequence of p70S6Kb (Q9UBS0 whole entry): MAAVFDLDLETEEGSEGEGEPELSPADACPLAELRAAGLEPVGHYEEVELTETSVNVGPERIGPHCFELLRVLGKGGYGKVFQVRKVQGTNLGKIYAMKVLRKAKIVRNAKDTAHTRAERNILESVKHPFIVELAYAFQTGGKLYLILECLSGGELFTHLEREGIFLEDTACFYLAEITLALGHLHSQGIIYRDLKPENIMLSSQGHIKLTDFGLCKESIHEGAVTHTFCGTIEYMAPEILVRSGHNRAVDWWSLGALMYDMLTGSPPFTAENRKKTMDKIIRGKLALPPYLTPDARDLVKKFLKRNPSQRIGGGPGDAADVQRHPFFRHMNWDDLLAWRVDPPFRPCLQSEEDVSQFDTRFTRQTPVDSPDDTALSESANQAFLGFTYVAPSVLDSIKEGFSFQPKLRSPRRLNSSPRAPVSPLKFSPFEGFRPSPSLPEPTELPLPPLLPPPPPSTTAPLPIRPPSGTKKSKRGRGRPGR
Protocol: as §1

RIPK3 = RIPK3 (Homo sapiens, UniProt Q9Y572); settings: MOLM-13; 100 nM, 2 hours; Lys2; read-out: Inhibition vs DMSO
Sequence of RIPK3 (Q9Y572 whole entry): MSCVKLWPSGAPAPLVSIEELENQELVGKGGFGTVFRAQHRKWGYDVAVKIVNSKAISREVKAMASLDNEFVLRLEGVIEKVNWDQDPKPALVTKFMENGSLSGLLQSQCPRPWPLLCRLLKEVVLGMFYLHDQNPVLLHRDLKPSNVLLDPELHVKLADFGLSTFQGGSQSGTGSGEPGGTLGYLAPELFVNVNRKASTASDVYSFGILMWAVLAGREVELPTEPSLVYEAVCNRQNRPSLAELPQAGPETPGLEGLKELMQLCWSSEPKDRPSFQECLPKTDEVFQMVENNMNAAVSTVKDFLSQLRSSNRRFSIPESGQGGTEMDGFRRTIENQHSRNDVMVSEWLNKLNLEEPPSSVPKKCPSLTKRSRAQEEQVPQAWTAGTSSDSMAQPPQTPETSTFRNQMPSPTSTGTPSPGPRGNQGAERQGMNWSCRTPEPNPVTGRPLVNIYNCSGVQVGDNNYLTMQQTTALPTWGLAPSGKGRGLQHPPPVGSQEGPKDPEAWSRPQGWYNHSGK
Protocol: as §1

SYK = SYK (Homo sapiens, UniProt P43405); settings: 100 nM, 2 hours
Protocol: as §1

ULK1 = biological target: T1, ULK1 (Homo sapiens, UniProt O75385); settings: 100 nM, 2 hours; Lys2
T1 sequence (O75385 1-1050): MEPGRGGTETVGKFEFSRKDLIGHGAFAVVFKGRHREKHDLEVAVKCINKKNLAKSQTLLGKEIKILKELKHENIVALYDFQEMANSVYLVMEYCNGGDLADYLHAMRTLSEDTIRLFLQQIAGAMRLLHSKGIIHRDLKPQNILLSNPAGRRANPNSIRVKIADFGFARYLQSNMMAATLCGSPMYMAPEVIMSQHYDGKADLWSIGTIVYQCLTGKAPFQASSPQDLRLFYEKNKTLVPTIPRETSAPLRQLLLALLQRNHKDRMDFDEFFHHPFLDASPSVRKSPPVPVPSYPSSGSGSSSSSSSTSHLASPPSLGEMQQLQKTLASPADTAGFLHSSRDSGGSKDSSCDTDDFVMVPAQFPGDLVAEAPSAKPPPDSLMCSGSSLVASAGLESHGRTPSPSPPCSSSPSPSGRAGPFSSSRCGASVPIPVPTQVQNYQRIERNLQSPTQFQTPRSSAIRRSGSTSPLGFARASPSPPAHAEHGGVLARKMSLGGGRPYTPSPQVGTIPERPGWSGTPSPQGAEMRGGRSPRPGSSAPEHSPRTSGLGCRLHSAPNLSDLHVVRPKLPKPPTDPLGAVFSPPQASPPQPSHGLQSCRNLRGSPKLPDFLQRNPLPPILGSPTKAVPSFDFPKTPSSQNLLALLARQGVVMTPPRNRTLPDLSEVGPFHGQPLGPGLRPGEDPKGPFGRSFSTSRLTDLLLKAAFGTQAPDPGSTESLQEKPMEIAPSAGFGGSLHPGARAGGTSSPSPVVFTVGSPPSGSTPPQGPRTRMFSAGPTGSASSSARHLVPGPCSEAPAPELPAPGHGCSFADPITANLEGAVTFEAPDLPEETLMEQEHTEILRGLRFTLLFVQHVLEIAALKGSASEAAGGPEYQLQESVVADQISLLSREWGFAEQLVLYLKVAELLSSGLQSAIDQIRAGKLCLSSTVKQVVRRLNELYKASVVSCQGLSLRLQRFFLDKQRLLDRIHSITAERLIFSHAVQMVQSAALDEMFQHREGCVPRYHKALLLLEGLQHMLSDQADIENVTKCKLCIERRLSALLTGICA
Protocol: as §1

CaMKK2 = CaMKK2 (Homo sapiens, UniProt Q96RR4); settings: MOLM-13, 2 h, 100 nM
Sequence of CaMKK2 (Q96RR4 whole entry): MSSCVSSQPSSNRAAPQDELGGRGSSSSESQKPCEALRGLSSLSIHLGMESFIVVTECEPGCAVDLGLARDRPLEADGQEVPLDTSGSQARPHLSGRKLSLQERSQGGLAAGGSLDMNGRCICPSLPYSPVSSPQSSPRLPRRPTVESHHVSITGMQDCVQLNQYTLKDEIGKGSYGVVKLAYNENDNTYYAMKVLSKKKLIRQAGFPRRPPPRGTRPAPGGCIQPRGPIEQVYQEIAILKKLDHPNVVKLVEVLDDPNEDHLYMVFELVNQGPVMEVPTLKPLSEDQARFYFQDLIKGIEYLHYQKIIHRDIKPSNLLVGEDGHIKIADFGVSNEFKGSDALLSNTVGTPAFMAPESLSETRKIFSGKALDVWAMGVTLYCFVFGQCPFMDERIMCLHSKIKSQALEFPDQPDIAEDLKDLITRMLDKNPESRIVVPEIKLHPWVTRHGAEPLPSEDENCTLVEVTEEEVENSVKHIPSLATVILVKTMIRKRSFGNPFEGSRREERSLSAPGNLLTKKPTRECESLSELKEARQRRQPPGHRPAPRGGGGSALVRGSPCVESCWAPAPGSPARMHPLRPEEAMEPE
Protocol: as §1

Erk5 = Erk5 (Homo sapiens, UniProt Q13164); settings: MOLM-13; 100 nM, 2 hours; Lys2; read-out: Inhibition vs DMSO
Sequence of Erk5 (Q13164 whole entry): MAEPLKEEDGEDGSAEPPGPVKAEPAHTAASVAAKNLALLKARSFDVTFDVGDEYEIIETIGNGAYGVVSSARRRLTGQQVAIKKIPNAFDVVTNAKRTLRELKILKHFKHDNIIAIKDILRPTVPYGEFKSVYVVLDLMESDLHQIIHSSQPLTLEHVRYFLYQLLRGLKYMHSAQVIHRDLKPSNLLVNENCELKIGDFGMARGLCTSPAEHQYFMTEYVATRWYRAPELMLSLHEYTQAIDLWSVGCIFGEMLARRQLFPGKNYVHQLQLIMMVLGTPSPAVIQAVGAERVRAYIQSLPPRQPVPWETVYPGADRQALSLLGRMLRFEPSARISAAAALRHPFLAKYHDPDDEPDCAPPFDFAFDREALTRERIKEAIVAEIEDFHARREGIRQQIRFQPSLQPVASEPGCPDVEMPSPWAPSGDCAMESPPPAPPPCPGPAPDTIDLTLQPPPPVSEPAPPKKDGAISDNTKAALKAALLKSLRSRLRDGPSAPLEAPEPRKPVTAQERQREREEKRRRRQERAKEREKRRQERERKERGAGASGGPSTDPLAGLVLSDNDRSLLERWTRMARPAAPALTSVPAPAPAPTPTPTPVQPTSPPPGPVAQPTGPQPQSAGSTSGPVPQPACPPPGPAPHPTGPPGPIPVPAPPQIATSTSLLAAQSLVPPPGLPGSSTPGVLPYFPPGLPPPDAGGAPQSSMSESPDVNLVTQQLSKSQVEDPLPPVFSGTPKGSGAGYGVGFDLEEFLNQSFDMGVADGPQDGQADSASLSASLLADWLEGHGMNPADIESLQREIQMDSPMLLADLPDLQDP
Protocol: as §1

NEK9 = biological target: T2, NEK9 (Homo sapiens, UniProt Q8TD19); settings: MOLM-13, 2 h, 100 nM
T2 sequence (Q8TD19 1-979): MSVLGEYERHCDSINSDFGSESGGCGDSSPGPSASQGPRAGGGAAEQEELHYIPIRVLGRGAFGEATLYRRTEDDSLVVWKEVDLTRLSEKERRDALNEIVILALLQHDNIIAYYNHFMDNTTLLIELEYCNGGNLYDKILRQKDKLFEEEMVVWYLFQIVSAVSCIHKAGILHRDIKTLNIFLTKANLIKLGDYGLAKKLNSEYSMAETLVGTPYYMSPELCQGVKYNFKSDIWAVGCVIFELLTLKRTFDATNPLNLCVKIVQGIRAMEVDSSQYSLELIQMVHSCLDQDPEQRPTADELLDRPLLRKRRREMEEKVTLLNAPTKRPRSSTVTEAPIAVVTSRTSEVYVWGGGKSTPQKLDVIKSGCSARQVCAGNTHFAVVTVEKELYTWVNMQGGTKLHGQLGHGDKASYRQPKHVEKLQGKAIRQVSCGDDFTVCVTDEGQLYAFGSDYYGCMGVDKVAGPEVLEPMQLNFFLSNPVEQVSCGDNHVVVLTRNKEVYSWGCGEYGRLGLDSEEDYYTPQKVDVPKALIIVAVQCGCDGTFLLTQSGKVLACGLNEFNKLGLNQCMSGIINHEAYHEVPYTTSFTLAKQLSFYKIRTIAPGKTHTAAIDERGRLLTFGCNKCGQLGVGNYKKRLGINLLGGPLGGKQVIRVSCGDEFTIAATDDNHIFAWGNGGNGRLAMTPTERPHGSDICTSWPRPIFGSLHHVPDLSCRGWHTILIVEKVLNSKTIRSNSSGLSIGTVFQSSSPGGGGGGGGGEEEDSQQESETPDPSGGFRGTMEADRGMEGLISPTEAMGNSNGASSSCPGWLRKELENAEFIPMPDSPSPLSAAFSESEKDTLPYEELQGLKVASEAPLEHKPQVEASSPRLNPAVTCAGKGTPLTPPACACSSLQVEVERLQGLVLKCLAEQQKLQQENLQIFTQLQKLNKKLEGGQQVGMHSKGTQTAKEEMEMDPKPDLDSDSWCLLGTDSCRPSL
Protocol: as §1

[1] = Lys1, read-out: Inhibition vs DMSO
[2] = Lys2, read-out: Inhibition vs DMSO

SMILES: CN1CCN(Cc2ccc(Nc3ncc(Cl)c(Nc4ccccc4S(=O)(=O)N(C)C)n3)cc2)CC1 [TP-0903]
- inhibition at 0.1 µM (CCRK): 68.3%
- inhibition at 0.1 µM (MAP3K5): 0.5%
- inhibition at 0.1 µM (PAK2; [1]): -46.5%
- inhibition at 0.1 µM (PAK2; Other, read-out: Inhibition vs DMSO): -26.6%
- inhibition at 0.1 µM (PLK1; [1]): 4.9%
- inhibition at 0.1 µM (PLK1; [2]): 0.247%
- Inhibition vs DMSO (MST1): 42.4%
- inhibition at 0.1 µM (p70S6Kb; [1]): 10.1%
- inhibition at 0.1 µM (p70S6Kb; [2]): -12.6%
- inhibition at 0.1 µM (RIPK3): 6.4%
- Inhibition vs DMSO (SYK; Activation Loop, AQTHGKWPVK): 27.9%
- Inhibition vs DMSO (SYK; Activation Loop, ISDFGLSKALR): 17.6%
- Inhibition vs DMSO (SYK; Lys1): 8.1%
- Inhibition vs DMSO (ULK1): 45.8%
- inhibition at 0.1 µM (CaMKK2; [1]): 40.8%
- inhibition at 0.1 µM (CaMKK2; [2]): 36.1%
- inhibition at 0.1 µM (Erk5): 84.9%
- inhibition at 0.1 µM (NEK9; Activation Loop, read-out: Inhibition vs DMSO): 45.7%
- inhibition at 0.1 µM (NEK9; [1]): 48%
- inhibition at 0.1 µM (NEK9; [2]): 48.8%
